# Data from patent US12312347B2, “Azaindole derivative and use thereof as FGFR and C-Met inhibitor” (Wuxi Life Fountain Biotech Co., Ltd, priority 2018, dated 2025).
# Counter-ions that a name gives are not always drawn.
# Molecular target: T1, human FGFR1 (Homo sapiens, UniProt P11362)
# T1 construct: purchased Invitrogen PV3146
# Assay: 33P isotope-labeled kinase activity test, FGFR1
# Format: biochemical
# Conditions: ATP 5 μM
# Protocol: (§1) The inhibitory activities of the tested compounds on human FGFR1, FGFR4, and c-Met were evaluated by the IC50 values measured using ^33P isotope-labeled kinase activity test (Reaction Biology Corp).
# (§2) Buffer condition: 20 mM Hepes (pH 7.5), 10 mM MgCl2, 1 mM EGTA, 0.02% Brij35, 0.02 mg/mL BSA, 0.1 mM Na3VO4, 2 mM DTT, 1% DMSO.
# Test procedure: The test compounds were dissolved in DMSO at room temperature and formulated to be 10 mM solutions for later use. The substrates were dissolved in freshly prepared buffer, and kinases to be tested were added and mixed well. The test compounds dissolved in DMSO were added to the above mixed reaction solutions by acoustic technique (Echo 550). […] After incubation for 15 min, ^33P-ATP (activity 0.01 μCi/μL, corresponding concentrations are listed in Table 1) was added to start the reaction. Supplier item number, batch number, as well as the concentration information in the reaction solution of FGFR1, FGFR4, c-Met and substrates thereof are listed in Table 1. […] The kinase activity data are expressed by comparison between the kinase activity in the test compound group and the kinase activity in the blank group (containing DMSO only). IC50 values were obtained by curve fitting with Prism4 software (GraphPad).
# T1 sequence (P11362 22-822): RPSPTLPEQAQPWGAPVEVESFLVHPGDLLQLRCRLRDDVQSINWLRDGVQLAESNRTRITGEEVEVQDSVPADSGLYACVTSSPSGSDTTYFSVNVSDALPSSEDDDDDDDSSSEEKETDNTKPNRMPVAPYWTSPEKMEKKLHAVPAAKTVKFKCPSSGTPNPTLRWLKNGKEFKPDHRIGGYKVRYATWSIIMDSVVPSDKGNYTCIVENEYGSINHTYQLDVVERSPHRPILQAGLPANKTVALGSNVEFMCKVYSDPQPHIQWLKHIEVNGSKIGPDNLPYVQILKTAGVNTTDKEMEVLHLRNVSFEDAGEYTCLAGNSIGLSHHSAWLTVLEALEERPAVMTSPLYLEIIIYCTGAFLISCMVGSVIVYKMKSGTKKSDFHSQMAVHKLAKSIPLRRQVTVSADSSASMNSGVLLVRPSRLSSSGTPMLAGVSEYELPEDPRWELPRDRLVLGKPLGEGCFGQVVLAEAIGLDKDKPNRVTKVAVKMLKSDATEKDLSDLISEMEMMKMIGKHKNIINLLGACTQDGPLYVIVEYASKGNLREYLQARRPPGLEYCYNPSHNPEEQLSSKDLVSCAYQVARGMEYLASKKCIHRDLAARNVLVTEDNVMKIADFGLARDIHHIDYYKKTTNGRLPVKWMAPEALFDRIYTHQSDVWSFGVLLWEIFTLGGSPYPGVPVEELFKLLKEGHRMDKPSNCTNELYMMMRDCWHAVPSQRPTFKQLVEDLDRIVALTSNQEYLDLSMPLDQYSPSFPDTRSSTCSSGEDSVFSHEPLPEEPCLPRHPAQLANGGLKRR
row,Compound,IC50
1,COc1ccc(F)c(Cc2c[nH]c3ncc(-c4cnn(C5CCNCC5)c4)cc23)c1F [Trifluoroacetate salt of embodiment 19],13.7 nM
2,COc1cc(OC)c(F)c(CC2=CN=C3N=CC(c4cnn(CCN5CCOCC5)c4)=CC23)c1F (stereo not drawn) [Trifluoroacetate salt of embodiment 21],2 nM
3,COc1cc(OC)c(F)c(Cc2c[nH]c3ncc(-c4cnn(C5CN(S(C)(=O)=O)C5)c4)cc23)c1F [Trifluoroacetate salt of embodiment 23],4.85 nM
4,CCN1CC(n2cc(-c3cnc4[nH]cc(Cc5c(F)c(OC)cc(OC)c5F)c4c3)cn2)C1 [Trifluoroacetate salt of embodiment 25],2.1 nM
5,COc1cc(OC)c(F)c(Cc2c[nH]c3ncc(-c4cnn(CC5CNC5)c4)cc23)c1F [Trifluoroacetate salt of embodiment 29],1.9 nM
6,COc1cc(OC)c(F)c(Cc2c[nH]c3ncc(-c4cnn(S(C)(=O)=O)c4)cc23)c1F [Trifluoroacetate salt of embodiment 30],2.1 nM
7,COc1cc(OC)c(F)c(Cc2c[nH]c3ncc(-c4cnn(C5CCC(O)CC5)c4)cc23)c1F (stereo not drawn) [Trifluoroacetate salt of embodiment 31],0.9 nM
8,CCN1CCC(n2cc(-c3cnc4[nH]cc(Cc5c(F)ccc(OC)c5F)c4c3)c(C)n2)CC1 [Trifluoroacetate salt of embodiment 39],29 nM
9,COc1cc(OC)c(F)c(Cc2c[nH]c3ncc(-c4cnc5c(c4)CNC5)cc23)c1F [Trifluoroacetate salt of embodiment 50],0.12 nM
10,CCN1Cc2cc(-c3cnc4[nH]cc(Cc5c(F)c(OC)cc(OC)c5F)c4c3)cnc2C1 [Trifluoroacetate salt of embodiment 51],0.27 nM

# The next lines start with the values.
row,IC50,Compound
1,0.06 nM,COc1cc(OC)c(F)c(Cc2c[nH]c3ncc(-c4cnc5c(c4)CNCC5)cc23)c1F [Trifluoroacetate salt of embodiment 52]
2,0.32 nM,CCN1CCc2ncc(-c3cnc4[nH]cc(Cc5c(F)c(OC)cc(OC)c5F)c4c3)cc2C1 [Trifluoroacetate salt of embodiment 53]
3,2.7 nM,COc1cc(OC)c(F)c(Cc2c[nH]c3ncc(-c4ccc5c(c4)NC(=O)C54CCNCC4)cc23)c1F [Trifluoroacetate salt of embodiment 54]
4,2.2 nM,CCN1CCC2(CC1)C(=O)Nc1cc(-c3cnc4[nH]cc(Cc5c(F)c(OC)cc(OC)c5F)c4c3)ccc12 [Trifluoroacetate salt of embodiment 55]
5,1.9 nM,COc1cc(OC)c(F)c(Cc2c[nH]c3ncc(-c4ccc5c(c4)NC(=O)C54CCN(C)CC4)cc23)c1F [Trifluoroacetate salt of embodiment 56]
6,1.2 nM,CCN1CCC(C#N)(c2ccc(-c3cnc4[nH]cc(Cc5c(F)c(OC)cc(OC)c5F)c4c3)cc2)CC1 [Trifluoroacetate salt of embodiment 58]
7,0.8 nM,COc1cc(OC)c(F)c(Cc2c[nH]c3ncc(-c4cccc(C5(C#N)CCNCC5)c4)cc23)c1F [Trifluoroacetate salt of embodiment 59]
8,2.2 nM,CCN1CCC(C#N)(c2cccc(-c3cnc4[nH]cc(Cc5c(F)c(OC)cc(OC)c5F)c4c3)c2)CC1 [Trifluoroacetate salt of embodiment 60]
9,0.7 nM,COc1cc(OC)c(F)c(Cc2c[nH]c3ncc(-c4cncc(C5(C#N)CCNCC5)c4)cc23)c1F [Trifluoroacetate salt of embodiment 61]
10,0.5 nM,COc1cc(OC)c(F)c(Cc2c[nH]c3ncc(-c4cnn(CC(C)(C)O)c4)cc23)c1F [Trifluoroacetate salt of embodiment 66]

# Molecular target: T2, human FGFR4 (Homo sapiens, UniProt P22455)
# T2 construct: purchased Invitrogen P3054
# Assay: 33P isotope-labeled kinase activity test, FGFR4
# Format: biochemical
# Conditions: ATP 100 μM
# Protocol: as §1, §2
# (§3) Test procedure: The test compounds were dissolved in DMSO at room temperature and formulated to be 10 mM solutions for later use. The substrates were dissolved in freshly prepared buffer, and kinases to be tested were added and mixed well. The test compounds dissolved in DMSO were added to the above mixed reaction solutions by acoustic technique (Echo 550). The concentration of the compound in reaction solution was 1 μM, […], 3.91 nM, 0.977 nM, 0.244 nM, 0.061 nM, 0.0153 nM, 0.00381 nM or 10 μM, 2.50 μM, 0.62 μM, 0.156 μM, 39.1 nM, 9.8 nM, 2.4 nM, 0.61 nM, 0.15 nM, 0.038 nM. After incubation for 15 min, ^33P-ATP (activity 0.01 μCi/μL, corresponding concentrations are listed in Table 1) was added to start the reaction. Supplier item number, batch number, as well as the concentration information in the reaction solution of FGFR1, FGFR4, c-Met and substrates thereof are listed in Table 1. […] The kinase activity data are expressed by comparison between the kinase activity in the test compound group and the kinase activity in the blank group (containing DMSO only). IC50 values were obtained by curve fitting with Prism4 software (GraphPad).
# T2 sequence (P22455 22-802): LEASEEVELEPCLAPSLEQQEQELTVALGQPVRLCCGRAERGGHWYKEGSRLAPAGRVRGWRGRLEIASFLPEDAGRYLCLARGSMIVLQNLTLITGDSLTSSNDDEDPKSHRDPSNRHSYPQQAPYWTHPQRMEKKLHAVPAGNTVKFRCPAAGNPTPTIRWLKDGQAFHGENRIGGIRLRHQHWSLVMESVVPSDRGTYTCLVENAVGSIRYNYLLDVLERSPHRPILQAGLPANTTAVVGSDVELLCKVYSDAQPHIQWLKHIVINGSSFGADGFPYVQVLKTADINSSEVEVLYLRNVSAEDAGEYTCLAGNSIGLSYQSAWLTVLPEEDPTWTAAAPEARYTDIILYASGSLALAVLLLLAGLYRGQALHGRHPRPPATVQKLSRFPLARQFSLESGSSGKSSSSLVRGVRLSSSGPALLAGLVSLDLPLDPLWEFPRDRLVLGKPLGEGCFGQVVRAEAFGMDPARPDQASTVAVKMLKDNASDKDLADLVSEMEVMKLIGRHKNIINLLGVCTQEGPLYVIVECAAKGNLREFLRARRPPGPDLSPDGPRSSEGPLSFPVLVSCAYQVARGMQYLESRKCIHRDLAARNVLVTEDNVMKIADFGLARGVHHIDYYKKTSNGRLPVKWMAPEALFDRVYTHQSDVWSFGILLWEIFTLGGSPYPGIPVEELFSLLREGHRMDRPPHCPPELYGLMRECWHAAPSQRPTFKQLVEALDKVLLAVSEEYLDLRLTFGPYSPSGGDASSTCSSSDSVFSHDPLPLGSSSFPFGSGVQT
row,Compound,IC50
1,COc1ccc(F)c(Cc2c[nH]c3ncc(-c4cnn(C5CCNCC5)c4)cc23)c1F [Trifluoroacetate salt of embodiment 19],262 nM
2,COc1cc(OC)c(F)c(CC2=CN=C3N=CC(c4cnn(CCN5CCOCC5)c4)=CC23)c1F (stereo not drawn) [Trifluoroacetate salt of embodiment 21],25.2 nM
3,COc1cc(OC)c(F)c(Cc2c[nH]c3ncc(-c4cnn(C5CN(S(C)(=O)=O)C5)c4)cc23)c1F [Trifluoroacetate salt of embodiment 23],43.9 nM
4,CCN1CC(n2cc(-c3cnc4[nH]cc(Cc5c(F)c(OC)cc(OC)c5F)c4c3)cn2)C1 [Trifluoroacetate salt of embodiment 25],31.9 nM
5,COc1cc(OC)c(F)c(Cc2c[nH]c3ncc(-c4cnn(CC5CNC5)c4)cc23)c1F [Trifluoroacetate salt of embodiment 29],24.6 nM
6,COc1cc(OC)c(F)c(Cc2c[nH]c3ncc(-c4cnn(S(C)(=O)=O)c4)cc23)c1F [Trifluoroacetate salt of embodiment 30],28.2 nM
7,COc1cc(OC)c(F)c(Cc2c[nH]c3ncc(-c4cnn(C5CCC(O)CC5)c4)cc23)c1F (stereo not drawn) [Trifluoroacetate salt of embodiment 31],9.9 nM
8,CCN1CCC(n2cc(-c3cnc4[nH]cc(Cc5c(F)ccc(OC)c5F)c4c3)c(C)n2)CC1 [Trifluoroacetate salt of embodiment 39],752 nM
9,COc1cc(OC)c(F)c(Cc2c[nH]c3ncc(-c4cnc5c(c4)CNC5)cc23)c1F [Trifluoroacetate salt of embodiment 50],4.4 nM
10,CCN1Cc2cc(-c3cnc4[nH]cc(Cc5c(F)c(OC)cc(OC)c5F)c4c3)cnc2C1 [Trifluoroacetate salt of embodiment 51],3 nM

# Results, then the compound that gave them:
row,IC50,Compound
1,13.7 nM,COc1cc(OC)c(F)c(Cc2c[nH]c3ncc(-c4cnc5c(c4)CNCC5)cc23)c1F [Trifluoroacetate salt of embodiment 52]
2,2.9 nM,CCN1CCc2ncc(-c3cnc4[nH]cc(Cc5c(F)c(OC)cc(OC)c5F)c4c3)cc2C1 [Trifluoroacetate salt of embodiment 53]
3,58.5 nM,COc1cc(OC)c(F)c(Cc2c[nH]c3ncc(-c4ccc5c(c4)NC(=O)C54CCNCC4)cc23)c1F [Trifluoroacetate salt of embodiment 54]
4,44.9 nM,CCN1CCC2(CC1)C(=O)Nc1cc(-c3cnc4[nH]cc(Cc5c(F)c(OC)cc(OC)c5F)c4c3)ccc12 [Trifluoroacetate salt of embodiment 55]
5,53.2 nM,COc1cc(OC)c(F)c(Cc2c[nH]c3ncc(-c4ccc5c(c4)NC(=O)C54CCN(C)CC4)cc23)c1F [Trifluoroacetate salt of embodiment 56]
6,23.5 nM,CCN1CCC(C#N)(c2ccc(-c3cnc4[nH]cc(Cc5c(F)c(OC)cc(OC)c5F)c4c3)cc2)CC1 [Trifluoroacetate salt of embodiment 58]
7,14.7 nM,COc1cc(OC)c(F)c(Cc2c[nH]c3ncc(-c4cccc(C5(C#N)CCNCC5)c4)cc23)c1F [Trifluoroacetate salt of embodiment 59]
8,33.4 nM,CCN1CCC(C#N)(c2cccc(-c3cnc4[nH]cc(Cc5c(F)c(OC)cc(OC)c5F)c4c3)c2)CC1 [Trifluoroacetate salt of embodiment 60]
9,4.5 nM,COc1cc(OC)c(F)c(Cc2c[nH]c3ncc(-c4cncc(C5(C#N)CCNCC5)c4)cc23)c1F [Trifluoroacetate salt of embodiment 61]
10,9 nM,COc1cc(OC)c(F)c(Cc2c[nH]c3ncc(-c4cnn(CC(C)(C)O)c4)cc23)c1F [Trifluoroacetate salt of embodiment 66]

# Molecular target: T3, human c-Met (Homo sapiens, UniProt P08581)
# T3 construct: purchased Invitrogen PV3143
# Assay: 33P isotope-labeled kinase activity test, c-Met
# Format: biochemical
# Conditions: ATP 10 μM
# Protocol: as §1, §2, §3
# T3 sequence (P08581 25-1390): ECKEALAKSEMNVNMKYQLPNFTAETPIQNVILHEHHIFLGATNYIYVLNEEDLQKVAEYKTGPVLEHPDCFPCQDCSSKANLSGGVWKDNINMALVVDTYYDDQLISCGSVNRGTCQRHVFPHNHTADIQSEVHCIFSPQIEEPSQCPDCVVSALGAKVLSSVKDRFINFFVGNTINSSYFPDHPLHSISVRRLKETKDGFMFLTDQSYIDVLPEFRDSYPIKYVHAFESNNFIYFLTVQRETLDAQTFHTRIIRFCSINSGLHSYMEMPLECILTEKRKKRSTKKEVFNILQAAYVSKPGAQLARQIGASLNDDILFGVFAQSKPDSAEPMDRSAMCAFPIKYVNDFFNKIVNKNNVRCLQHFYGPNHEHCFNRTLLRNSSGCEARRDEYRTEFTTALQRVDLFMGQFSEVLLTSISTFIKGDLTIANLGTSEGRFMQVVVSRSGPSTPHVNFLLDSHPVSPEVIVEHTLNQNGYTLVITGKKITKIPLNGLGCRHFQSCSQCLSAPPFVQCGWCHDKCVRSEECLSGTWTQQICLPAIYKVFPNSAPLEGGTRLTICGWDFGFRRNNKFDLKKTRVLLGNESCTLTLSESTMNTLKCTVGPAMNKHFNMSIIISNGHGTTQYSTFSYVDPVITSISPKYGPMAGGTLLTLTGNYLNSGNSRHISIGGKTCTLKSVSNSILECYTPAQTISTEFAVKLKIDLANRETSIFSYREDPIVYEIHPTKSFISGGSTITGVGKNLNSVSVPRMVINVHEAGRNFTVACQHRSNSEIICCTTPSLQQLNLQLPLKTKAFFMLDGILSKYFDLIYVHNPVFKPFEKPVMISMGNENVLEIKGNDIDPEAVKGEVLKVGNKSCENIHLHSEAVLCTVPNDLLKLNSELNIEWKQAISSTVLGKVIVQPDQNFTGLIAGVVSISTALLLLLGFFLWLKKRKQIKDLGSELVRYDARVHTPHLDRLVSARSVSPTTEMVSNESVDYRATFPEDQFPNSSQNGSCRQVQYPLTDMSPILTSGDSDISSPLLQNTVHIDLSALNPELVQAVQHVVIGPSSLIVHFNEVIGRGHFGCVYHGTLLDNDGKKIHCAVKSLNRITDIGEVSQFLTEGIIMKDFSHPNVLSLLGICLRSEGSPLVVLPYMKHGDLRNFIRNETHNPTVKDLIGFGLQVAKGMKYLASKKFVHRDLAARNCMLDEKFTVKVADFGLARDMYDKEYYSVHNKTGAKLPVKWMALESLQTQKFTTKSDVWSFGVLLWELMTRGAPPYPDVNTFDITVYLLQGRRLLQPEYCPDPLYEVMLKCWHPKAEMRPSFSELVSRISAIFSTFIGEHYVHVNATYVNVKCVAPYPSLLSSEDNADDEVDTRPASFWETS
row,Compound,IC50
1,COc1ccc(F)c(Cc2c[nH]c3ncc(-c4cnn(C5CCNCC5)c4)cc23)c1F [Trifluoroacetate salt of embodiment 19],5.7 nM
2,COc1cc(OC)c(F)c(CC2=CN=C3N=CC(c4cnn(CCN5CCOCC5)c4)=CC23)c1F (stereo not drawn) [Trifluoroacetate salt of embodiment 21],55.9 nM
3,COc1cc(OC)c(F)c(Cc2c[nH]c3ncc(-c4cnn(C5CN(S(C)(=O)=O)C5)c4)cc23)c1F [Trifluoroacetate salt of embodiment 23],21 nM
4,CCN1CC(n2cc(-c3cnc4[nH]cc(Cc5c(F)c(OC)cc(OC)c5F)c4c3)cn2)C1 [Trifluoroacetate salt of embodiment 25],16.9 nM
5,COc1cc(OC)c(F)c(Cc2c[nH]c3ncc(-c4cnn(CC5CNC5)c4)cc23)c1F [Trifluoroacetate salt of embodiment 29],35.6 nM
6,COc1cc(OC)c(F)c(Cc2c[nH]c3ncc(-c4cnn(S(C)(=O)=O)c4)cc23)c1F [Trifluoroacetate salt of embodiment 30],169 nM
7,COc1cc(OC)c(F)c(Cc2c[nH]c3ncc(-c4cnn(C5CCC(O)CC5)c4)cc23)c1F (stereo not drawn) [Trifluoroacetate salt of embodiment 31],6.9 nM
8,CCN1CCC(n2cc(-c3cnc4[nH]cc(Cc5c(F)ccc(OC)c5F)c4c3)c(C)n2)CC1 [Trifluoroacetate salt of embodiment 39],24.5 nM
9,COc1cc(OC)c(F)c(Cc2c[nH]c3ncc(-c4cnc5c(c4)CNC5)cc23)c1F [Trifluoroacetate salt of embodiment 50],136 nM
10,CCN1Cc2cc(-c3cnc4[nH]cc(Cc5c(F)c(OC)cc(OC)c5F)c4c3)cnc2C1 [Trifluoroacetate salt of embodiment 51],84.1 nM

# Further lines, results first:
row,IC50,Compound
1,137 nM,COc1cc(OC)c(F)c(Cc2c[nH]c3ncc(-c4cnc5c(c4)CNCC5)cc23)c1F [Trifluoroacetate salt of embodiment 52]
2,107 nM,CCN1CCc2ncc(-c3cnc4[nH]cc(Cc5c(F)c(OC)cc(OC)c5F)c4c3)cc2C1 [Trifluoroacetate salt of embodiment 53]
3,16.5 nM,COc1cc(OC)c(F)c(Cc2c[nH]c3ncc(-c4ccc5c(c4)NC(=O)C54CCNCC4)cc23)c1F [Trifluoroacetate salt of embodiment 54]
4,22.8 nM,CCN1CCC2(CC1)C(=O)Nc1cc(-c3cnc4[nH]cc(Cc5c(F)c(OC)cc(OC)c5F)c4c3)ccc12 [Trifluoroacetate salt of embodiment 55]
5,7.8 nM,COc1cc(OC)c(F)c(Cc2c[nH]c3ncc(-c4ccc5c(c4)NC(=O)C54CCN(C)CC4)cc23)c1F [Trifluoroacetate salt of embodiment 56]
6,162 nM,CCN1CCC(C#N)(c2ccc(-c3cnc4[nH]cc(Cc5c(F)c(OC)cc(OC)c5F)c4c3)cc2)CC1 [Trifluoroacetate salt of embodiment 58]
7,127 nM,COc1cc(OC)c(F)c(Cc2c[nH]c3ncc(-c4cccc(C5(C#N)CCNCC5)c4)cc23)c1F [Trifluoroacetate salt of embodiment 59]
8,320 nM,CCN1CCC(C#N)(c2cccc(-c3cnc4[nH]cc(Cc5c(F)c(OC)cc(OC)c5F)c4c3)c2)CC1 [Trifluoroacetate salt of embodiment 60]
9,243 nM,COc1cc(OC)c(F)c(Cc2c[nH]c3ncc(-c4cncc(C5(C#N)CCNCC5)c4)cc23)c1F [Trifluoroacetate salt of embodiment 61]
10,28 nM,COc1cc(OC)c(F)c(Cc2c[nH]c3ncc(-c4cnn(CC(C)(C)O)c4)cc23)c1F [Trifluoroacetate salt of embodiment 66]
